Laboratory results as given in US20140194479A1, “COMPOSITIONS AND METHODS FOR TREATING MOOD DISORDERS” (priority 2011, published 2014).

Experiments:
[1] = system: extracellular 5-HT levels; details: McEwen et al., 2010, Mennini et al., 1987; cited from earlier work
[2] = molecular target: T1, HDAC3 (Homo sapiens, UniProt O15379); details: read-out: IC50 HDAC 3; cited from earlier work
Target sequence in this assay (O15379 whole entry, species assumed): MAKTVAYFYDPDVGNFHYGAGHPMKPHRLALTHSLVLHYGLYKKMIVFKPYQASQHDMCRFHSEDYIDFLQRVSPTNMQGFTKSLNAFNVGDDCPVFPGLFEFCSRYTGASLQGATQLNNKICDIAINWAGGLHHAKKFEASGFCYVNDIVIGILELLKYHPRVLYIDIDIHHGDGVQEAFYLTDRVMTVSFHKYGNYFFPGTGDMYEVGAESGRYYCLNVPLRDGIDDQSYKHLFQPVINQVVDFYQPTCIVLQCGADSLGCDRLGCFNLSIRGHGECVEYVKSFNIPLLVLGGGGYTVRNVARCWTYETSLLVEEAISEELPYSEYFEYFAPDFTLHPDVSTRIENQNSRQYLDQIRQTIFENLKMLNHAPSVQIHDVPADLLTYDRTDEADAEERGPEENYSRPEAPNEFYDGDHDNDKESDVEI
Target sequence in this assay (Q9Y618 395-489 partner limits assumed, species assumed): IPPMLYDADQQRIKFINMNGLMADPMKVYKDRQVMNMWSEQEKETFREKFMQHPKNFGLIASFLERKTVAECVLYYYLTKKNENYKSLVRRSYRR

[3] = system: 5-HT/5-HIAA levels in the forebrain neocortex; details: 300 mg/kg twice per day, within 5 days; Gurevich et al., 2002; cited from earlier work
[4] = system: histone H3 and H4 proteins in the forebrain neocortex; test: Western blotting of histone proteins, forebrain neocortex of SFR Balb/c mice; format: in vivo
Procedure: (§1) Forebrain neocortical tissue was dissected in phosphate-buffered saline supplemented with protease inhibitors and homogenized in 0.5% SDS, protease inhibitor cocktail (Complete Mini, Roche, Germany), 10 mM EDTA, and 10 mM Tris HCl (pH 8.0). Protein concentration was measured using the NanoDrop instrument (Thermo Scientific, Wilmington, Del.).
(§2) For loading controls, an anti-GAPDH antibody was used (Abcam, Cambridge, Mass.; 1:100,000). After incubation with primary antibody, membranes were incubated with a horseradish-peroxidase-conjugated secondary antibody (anti-rabbit IgG-HRP; Sigma, St. Louis, Mo.; dilution: 1:5,000) for 1 hour at room temperature. SuperSignal West Dura (Thermo Scientific, Waltham, Mass.) was used to visualize bound antigen. Optical densities (OD) of histone protein signals were determined using NIH ImageJ software. ODs were normalized to corresponding ODs obtained for GAPDH.

[5] = system: histone H3 and H4 proteins in the forebrain neocortex; test: Western blotting of histone proteins, forebrain neocortex of IMS Balb/c mice; format: in vivo
Procedure: as §1, §2

[6] = system: SFR Balb/c mice; test: Elevated Plus Maze (EPM), SFR Balb/c mice; format: in vivo; details: for time spent in the open arms of the EPM: SFR Balb/c treated during adolescence (P35 to P60), vs non-treated controls
[7] = system: SFR Balb/c mice; test: Forced Swim Test (FST), SFR (non-stressed) Balb/c mice; format: in vivo; details: for immobility in the FST: SFR Balb/c treated during adolescence (P35 to P60), vs SFR controls
Procedure: (§4) For chronic drug treatment, drugs were administered via the drinking water. […] Suberoylanidide hydroxamic acid (SAHA) was dissolved in DMSO and subsequently diluted about 100 fold in water containing 0.2% sucrose. Mice consumed about 200 mg/kg/day of SAHA (Butler et al., 2000) and their controls received drinking water supplemented with the same amount of DMSO and sucrose that SAHA-treated animals received. […] In these experiments, mice received a single intraperitoneal injection of SAHA (100 mg/kg) at P35, followed by SAHA treatment via the drinking water for the next 3 days.
Three days later, mice were tested in a modified version of Forced Swim Test (FST), i.e., a 6 minute exposure on day 1 followed by another 6 minute exposure on day 2.

[8] = Plasma concentration of theophylline under drinking water treatment; details: over 24 hours of theophylline-supplemented (10^−4M) drinking water consumption
Procedure: as §4

[9] = system: IMS Balb/c mice; test: Elevated Plus Maze (EPM), IMS Balb/c mice
From the text: (§5) Briefly, offspring of first-time mothers were separated from their dam daily for three hours (from 1:00 to 4:00 P.M.) from postnatal age day 2 (P2) until P15. Control animals were standard facility-reared (SFR) pups of first-time mothers. Housing and husbandry conditions were identical for IMS and SFR mice. Pups were weaned at P28 and group housed by sex (five animals randomly selected from at least five different litters). Since this study involved behavioral tests of emotive phenotypes that are sensitive to differences in the estrus cycle of females, all studies disclosed below were conducted on male mice.
as §4
Their times spent in open arms and the number of arm crossings was recorded. Three days later, mice were tested in a modified version of Forced Swim Test (FST), i.e., a 6 minute exposure on day 1 followed by another 6 minute exposure on day 2.

[10] = molecular target: HDAC1 (Homo sapiens, UniProt Q13547); details: at concentration below 10^−4M; Ito et al., 2002; cited from earlier work
HDAC1, sequence (Q13547 whole entry, species assumed): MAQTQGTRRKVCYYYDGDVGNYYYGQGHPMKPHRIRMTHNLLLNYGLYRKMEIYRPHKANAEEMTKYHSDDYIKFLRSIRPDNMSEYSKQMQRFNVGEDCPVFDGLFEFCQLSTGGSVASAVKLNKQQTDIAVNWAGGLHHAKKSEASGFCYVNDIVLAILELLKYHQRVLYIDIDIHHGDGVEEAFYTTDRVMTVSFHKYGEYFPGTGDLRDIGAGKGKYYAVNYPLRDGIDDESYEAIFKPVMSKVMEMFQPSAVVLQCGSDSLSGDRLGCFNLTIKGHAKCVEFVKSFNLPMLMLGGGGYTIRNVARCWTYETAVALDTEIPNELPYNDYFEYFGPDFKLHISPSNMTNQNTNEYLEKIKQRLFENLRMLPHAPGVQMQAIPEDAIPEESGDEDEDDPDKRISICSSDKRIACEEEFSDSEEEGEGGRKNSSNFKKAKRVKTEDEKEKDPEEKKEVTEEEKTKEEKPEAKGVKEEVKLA

[11] = system: phosphodiesterases; details: at concentration below 10^−4M; Ito et al., 2002; cited from earlier work
[12] = system: adenosine receptors; details: at concentration below 10^−4M; Ito et al., 2002; cited from earlier work
[13] = molecular target: T1, HDAC3; details: at concentration below 10^−4M; Ito et al., 2002; cited from earlier work
Target sequence in this assay (O15379 whole entry, species assumed): as the sequence (O15379 whole entry, species assumed) above

[14] = system: IMS Balb/c mice; test: Forced Swim Test (FST), IMS Balb/c mice
From the text: as §5, §4
Their times spent in open arms and the number of arm crossings was recorded. […]

[15] = system: HDAC mRNA; test: Real-time RT-PCR of HDAC mRNA, forebrain neocortex of IMS Balb/c mice
From the text: as §5, §4

[16] = system: aCH4K12 at BDNF promotors; test: ChIP/real-time PCR, aCH4K12 enrichment at BDNF promotors; format: in vivo, Balb/c mice; details: non-stressed Balb/c treated P35 to P59; FIG. 15B
From the text: (§3) Data in (FIG. 15A) are mean±sem of 8 animals per group. Data in (FIG. 15B) and (FIG. 15C) were obtained from ChIP/real-time PCR measures (mean±sem; n=4/group) using antibodies directed against aCH4K12 (FIG. 15B) and Pol II (FIG. 15C). […] Data in (FIG. 15D) are from RT-real-time PCR measures of BDNF mRNA levels (mean±sem, n=5/group). […] All data were compared by ANOVA and significant differences between groups were resolved post hoc using Tukey Kramer multiple comparisons as indicated. In all studies, male and female mice were used.

[17] = system: RNA Polymerase II (Pol II) at BDNF promotors; test: ChIP/real-time PCR, Pol II enrichment at BDNF promotors; format: in vivo, Balb/c mice; details: non-stressed Balb/c treated P35 to P59; FIG. 15C
From the text: as §3

[18] = system: histone H3 and H4 proteins in the forebrain neocortex; test: Western blotting of histone proteins, forebrain neocortex of C57BI/6 mice; format: in vivo; details: C57BI/6 mice at P60, IMS-fluoxetine, OD normalized to GAPDH, mean ± sem
Procedure: as §1, §2

[19] = system: SFR Balb/c mice; details: adolescent treatment; Bhansali et al., 2007; cited from earlier work
[20] = SFR Balb/c, adolescent treatment
[21] = IMS Balb/c treated between P21 and P35
[22] = IMS Balb/c, adolescent fluoxetine vs non-treated IMS
[23] = IMS Balb/c, adolescent treatment, compared to non-treated IMS Balb/c mice
[24] = IMS Balb/c, fluoxetine during adolescence, OD normalized to GAPDH, mean ± sem
[25] = IMS Balb/c, treatment P35 to P60, vs non-treated IMS
[26] = IMS-fluoxetine Balb/c at P60, mean±sem
[27] = SFR Balb/c, fluoxetine alone or with SAHA, OD normalized to GAPDH, mean ± sem

## CN1c2ccccc2C(NCCCCCCC(=O)O)c2ccc(Cl)cc2S1(=O)=O (centres unmarked) [tianeptine]
[1]
  extracellular 5-HT levels: without marked changes

## CCCC(=O)[O-].[Na+] [sodium butyrate]
[2]
  IC50: 700 µM

## N[C@@H](Cc1ccc(Cl)cc1)C(=O)O (racemic) [pCPA, para-chlorophenylalanine]
[3]
  reduction of 5-HT/5-HIAA levels in the forebrain neocortex: about 80%

## Nc1ccccc1NC(=O)c1ccc(CNC(=O)OCc2cccnc2)cc1 [MS-275]
[4]; [20]
  effect on acetylated H4K5 expression: increased
  effect on acetylated H4K8 expression: increased
  effect on acetylated H4K12 expression: increased

## O=C(CCCCCCC(=O)Nc1ccccc1)NO [SAHA, suberoylanilide hydroxamic acid]
[5]; [21]
  effect on development of the adult epigenetic phenotype: did not prevent
  effect on the decreased acetylation of histone H4 proteins: prevented
[6]; SFR Balb/c treated during adolescence
  percentage of open arm entries in the EPM: lowest percentage
[6]
  time spent in the open arms of the EPM: significantly less time
[7]
  immobility in the FST: significantly increased

## Cn1c(=O)c2[nH]cnc2n(C)c1=O [theophylline]
[8]
  plasma concentrations of theophylline: below 10^−4 M
[6]
  time spent in the open arms of the EPM: did not differ
[9]; IMS Balb/c treated P35 to P60, vs non-treated IMS mice
  total time spent in open arms of the EPM: significantly less time
[9]; SFR controls, IMS and treated IMS Balb/c
  total number of arm crossings in the EPM: no significant difference
[9]; treated IMS Balb/c compared with SFR controls
  percentages of crossings into open arms: did not reach statistical significance
[10]
  activation of HDAC1: activates
[7]
  immobility in the FST: did not differ
[11]
  inhibition of phosphodiesterases: exerts no
[12]
  antagonist effect on adenosine receptors: no antagonist effect
[13]
  activation of HDAC3: activates
[14]; IMS Balb/c treated P35 to P60, greater immobility of IMS mice
  total immobility time in the FST: significantly potentiated
[14]; SFR controls, IMS and treated IMS mice
  number of passive episodes in the FST: no significant differences

## CNCCC(Oc1ccc(C(F)(F)F)cc1)c1ccccc1 (centres unmarked) [fluoxetine]
[5]; [22]
  increase in acetylated H3K9 protein: 55%
  increase in acetylated H4K12 protein: 230%
  increase in total histone H3 protein expression: 60%
  increase in total histone H4 protein expression: 13%
[5]; [23]
  H3K4me3: Increased
  acH3K9: Increased
  acH4K5: Increased
  acH4K12: Increased
  acK4K8: Increased
[5]; [24]
  H3K4me3 expression: 0.94 ± 0.07
  H3K9me2 expression: 0.93 ± 0.03
  H3 expression: 1.31 ± 0.03
  acH3K9 expression: 1.21 ± 0.02
  acH4K5 expression: 0.94 ± 0.02
  acH4K8 expression: 1.51 ± 0.06
  acH4K12 expression: 1.16 ± 0.04
  acH4K16 expression: 1.04 ± 0.04
[5]; IMS Balb/c, fluoxetine during adolescence, OD on Western blots normalized to GAPDH, mean ± sem, n = 5
  H4 expression: 0.97 ± 0.05
[5]; [25]
  effect on acetylated H4K12 protein expression: significantly increased
  effect on acetylated histone H3K9 expression: significantly increased
  effect on acetylated histone H4K8 expression: significantly increased
  effect on dimethylated histone H3 protein expression: did not change
  effect on total H3 protein expression: increased
  effect on total H4 protein expression: increased
  effect on trimethylated histone H3 protein expression: increased
[15]; IMS Balb/c, treatment P35 to P60, nine HDAC mRNAs
  effect on HDAC mRNA expression levels: did not alter
[15]; [26]
  HDAC1 mRNA expression, real-time PCR ½^ΔCt: 0.011±0.0006
  HDAC2 mRNA expression, real-time PCR ½^ΔCt: 0.0016±0.0001
  HDAC3 mRNA expression, real-time PCR ½^ΔCt: 0.055±0.004
  HDAC4 mRNA expression, real-time PCR ½^ΔCt: 0.011±0.002
  HDAC5 mRNA expression, real-time PCR ½^ΔCt: 0.044±0.006
  HDAC7 mRNA expression, real-time PCR ½^ΔCt: 0.011±0.001
  HDAC8 mRNA expression, real-time PCR ½^ΔCt: 0.0035±0.0004
  HDAC9 mRNA expression, real-time PCR ½^ΔCt: 0.001±0.0002
  HDAC10 mRNA expression, real-time PCR ½^ΔCt: 0.0074±0.0006
[16]
  enrichment of aCH4K12 at BDNF promotor P1: higher enrichment
  enrichment of aCH4K12 at BDNF promotor P3: higher enrichment
[17]
  increase of density of Pol II associated with the P3 promotor of the BDNF gene: not in fluoxetine-only treated mice
[6]
  time spent in the open arms of the EPM: did not differ
[18]
  H3K4me3 expression: 0.94 ± 0.02
  H3K9me2 expression: 0.89 ± 0.03
  H3 expression: 0.98 ± 0.02
  acH3K9 expression: 1.00 ± 0.03
[18]; n = 5
  H4 expression: 1.00 ± 0.03
[4]; [27]
  H3K4me3 expression: 1.12 ± 0.02
  H3K9me2 expression: 1.08 ± 0.04
  H3 expression: 0.96 ± 0.01
  acH3K9 expression: 0.86 ± 0.03
  acH4K5 expression: 0.45 ± 0.06
  acH4K8 expression: 0.86 ± 0.06
  acH4K12 expression: 0.80 ± 0.03
  acH4K16 expression: 0.70 ± 0.06
[4]; SFR Balb/c, fluoxetine alone or with SAHA, OD on Western blots normalized to GAPDH, mean ± sem, n = 5
  H4 expression: 1.10 ± 0.04
[4]; SFR mice, adolescent fluoxetine 16 mg/kg/day vs vehicle, FIG. 7
  effect on histone H3/H4 expression: does not alter
[7]
  immobility in the FST: did not differ
[7]; non-stressed Balb/c treated P35 to P59, vs vehicle and fluoxetine-only, FIG. 15A
  immobility in the forced swim test (FST), antidepressant-like effects: not achieved
[19]
  FST behavior of SFR controls: had no effect
